Test results from US20250382565A1, “INTELLIGENT SUPERVISION SYSTEM AND METHOD FOR BACTERIAL CULTURE EQUIPMENT BASED ON BIG DATA” (Suzhou Foo-Chi Biomedical Technology Co., Ltd., priority 2024, published 2025).

Tested on: Staphylococcus aureus ATCC 29213
Test: MIC of the antibiotic against the strain to be tested by E-test
Type: cell-based
Details: ATCC29213, cefuroxime E-test strip, overnight culturing, CLSI standard operation
Description: Test of the MIC of the antibiotic against the strain to be tested: The strain ATCC 29213 for test is incubated onto a culture medium plate, and a bacterial colony grows after 18 to 24 h for future use. Normal saline (a phosphate buffer solution, or the like) is prepared and is then separately put into turbidimeter tubes, each of which has a capacity of 9 mL, and sterilization treatment is carried out (at 121° C. for 15 to 30 min). A particular number of bacteria are added into the turbidimeter tubes to make bacterial suspensions, and the MacFarland turbidity is adjusted to 0.5 to 1 McFarland. According to a CLSI standard operation and use guidelines of E-test, a swab is dipped into each bacterial suspension, and is applied to a culture medium. After the swab is dried for 15 to 20 min, a cefuroxime E-test strip is applied to a surface of a bacterial moss for overnight culturing. A scale at an intersection of an edge of an inhibition zone and the strip is read. The scale is an MIC value of ATCC 29213 against the cefuroxime, which is 2 ug/mL.

MIC: 2 µg/mL
SMILES: CO/N=C(\C(=O)N[C@@H]1C(=O)N2C(C(=O)O)=C(COC(N)=O)CS[C@H]12)c1ccco1 [cefuroxime]
